Data taken from US20230405078A1, “DETECTION AND TREATMENT OF INTESTINAL FIBROSIS” (THE REGENTS OF THE UNIVERSITY OF CALIFORNIA, priority 2020, published 2023).

Assays:
Assay type in all cases: cell-based, human
[1] = test system: Primary non-IBD patient-derived colonic fibroblasts; assay: TGF-β1-induced collagen expression in primary non-IBD patient-derived colonic fibroblasts; conditions: TGF-β1 10 ng/ml; elafin 1 μg/ml 24 hours
Experimental: Cleveland Clinic IRB directives (IRB #17-1167). Primary non-IBD patient-derived colonic fibroblasts (H6231) were purchased from Cell Biologics. All primary colonic fibroblasts were cultured in fibroblast medium (M2267, Cell Biologics). Human colonic CCD-18Co fibroblasts (ATCC) were cultured in minimal essential medium Eagle's medium (MEM) containing 10% fetal bovine serum and 1% penicillin-streptomycin 6, 20. All fibroblasts were grown to 80% confluence and then switched to serum-free media overnight for experiments.
For activation of protease-activated receptors (PARs), fibroblasts were pretreated with 0.8% DMSO, 10 μM PAR1 agonist TRAP-6 (HY-P0078, MCE), 10 μM PAR2 agonist SLIGKV-NH2 (Protease-Activated Receptor-2, amide, HY-P0283, MCE), or 0.4 μg/ml PAR2-activating protease recombinant cathepsin S (1183-CY-010, R&D Systems) for 30 minutes. For miR205-5p activation, fibroblasts were transfected with (30 picomoles/well) either control (YM00479902) or miR205-5p miRCURY LNA mimic (YM00472340) from Qiagen via Lipofectamine 3000 transfection reagent (L3000001, ThermoFisher) in Opti-MEM (#31985062, ThermoFisher) overnight. For miR205-5p inhibition, fibroblasts were pretreated with 50nM either control (Y100199006) or miR205-5p power inhibitors (Y104101508-DDA) from Qiagen overnight. […]

CCD-18Co fibroblasts = assay: Elafin exposure of serum-starved CCD-18Co fibroblasts (Example 1); conditions: elafin 0.1-3 μg/ml, 24 hours, no TGF-β1
Experimental: FIG. 6. Elafin promotes fibrogenesis in human colonic fibroblasts. (A) The human colonic CCD-18Co fibroblasts were incubated with 100 μl/ml (10%) of human sera from normal, stricturing CD, and non-stricturing CD patients in serum-free DMEM for 24 hours. (B) The human colonic CCD-18Co fibroblasts were incubated with 100 μl/ml (10%) of human sera from high elafin CD group (>8000 pg/ml) and low elafin CD group (<8000 pg/ml) in serum-free DMEM for 24 hours. (C) Serum-starved CCD-18Co fibroblasts were pretreated with 15 μg/ml of anti-elafin neutralizing antibody or control antibody for 30 minutes, followed by exposure to (100 μl/ml) human sera from normal and stricturing CD patients for 24 hours. Six serum donors per group. (D) Serum-starved CCD-18Co fibroblasts were exposed to elafin (0.1-3 μg/ml) for 24 hours. Pro-COL1A1 protein levels in cell lysates were determined by ELISA. (E) Serum-starved primary human intestinal fibroblasts from CD patients were exposed to elafin for 24 hours. mRNA expression was determined by real-time RT-PCR.
Human CCD-18Co intestinal fibroblasts (ATCC) (2×10^6 cells/plate) were cultured in minimal essential medium Eagle's medium (MEM) containing 10% fetal bovine serum (FBS) and 1% penicillin-streptomycin (P/S) (Invitrogen). […]

CD patient-derived PBMCs = assay: Cytokine multiplex assay in serum exosome-preconditioned CD PBMCs; conditions: CDSE-preconditioned CD PBMCs; 1 μg/ml elafin 6 hours
Experimental: FIG. 30. Cytokine levels in mouse and human sera and CD-PBMCs. (A) Mouse serum cytokine levels were measured by a 23-plex multiplex assay (#M60009RDPD, Bio-Rad). n=5 mice per group. (B) Human serum cytokines were measured by a 27-plex multiplex assay (#M500KCAFOY, Bio-rad). 12 normal, 23 UC, and 43 CD patients. (C) CD patient-derived PBMCs were preconditioned with stricturing CD patient (CDS) or non-stricturing CD patient (CDNS)-derived serum exosomes for two hours, followed by exposure to either 0.1% TFA or 1 μg/ml elafin for 6 hours. The cell supernatants were collected for a 13-plex cytokine multiplex assay (HSTCMAG28SPMX13, Millipore Sigma). (D) A comparison of cytokine levels in mouse sera, human sera, and conditioned media of CDS and CDNS serum exosome-conditioned CD-PBMCs. ns=no significant difference. ND=below detection range. N/A=unavailable. Mo=monocytes. MO=macrophages, DC=dendritic cells.
CD PBMCs (#70052, […] Technologies) were cultured in RPMI1640 media containing 10% exosome-depleted fetal bovine serum (A2720803, ThermoFisher) and 1% penicillin-streptomycin. Some groups were conditioned with 100 μg/ml of human serum exosomes from either CDSE or non-stricturing CD (CDNSE) patients to mimic the CD chemical environment for two hours, followed by addition with either 0.1% TFA or 1 μg/ml elafin. […]

Substance: Elafin: small (6 kDa) human elastase-specific protease inhibitor and antimicrobial peptide; active form SEQ ID NO: 2 (AQEPVKGPVSTKPGSCPIILIRCAMLNPPNRCLKDTDCPGIKKCCEGSCGMACFVPQ; listed as Homo sapiens)
- TGF-β1 induced COL1A2 and ProCOL1A1 protein expression [1]: reversed
- pro-collagen 1A1 protein expression (CCD-18Co fibroblasts): significantly increased
- T-cell cytokine secretion (CD patient-derived PBMCs): did not affect
